Results on 29 compounds are retold here after patent US20050107400A1, “Use of pyrazolopyridines as therapeutic compounds” (priority 2001, published 2005).

The assay relates to HSV-1. The assay is described as follows: HSV-1 replication in infected Vero 76 cells, DNA hybridization capture assay. Particulars: Human alphaherpesvirus 1; HSV-1 in Vero 76 cells, MOI=0.001, 40-48 hours at 37° C.; read-out: IC50. In kind it is cell-based, herpes simplex virus 1. The method, then:
a) Tissue Culture and HSV Infection.
Vero 76 cells were maintained in MEM with Earle's salts, L-glutamine, 8% FBS (Hyclone, A-1111-L) and 100 units/mL Penicillin-100 μg/mL Streptomycin. For assay conditions, FBS was reduced to 2%. Cells are seeded into 96-well tissue culture plates at a density of 5×10^4 cells/well after being incubated for 45 min at 37° C. in the presence of HSV-1 or HSV-2 (MOI=0.001). Test compounds are added to the wells and the plates are incubated at 37° C. for 40-48 hours. Cell lysates are prepared as follows: media was removed and replaced with 150 μL/well 0.2 N NaOH with 1% Igepal CA 630 or NP-40. Plates were incubated up to 14 days at room temperature in a humidified chamber to prevent evaporation.
(b) Preparation of Detection DNA.
For the detection probe, a gel-purified, digoxigenin-labeled, […] PCR fragment of the HSV UL-15 sequence was utilized. PCR conditions included 0.5 μM primers, 180 μM dTTP, 20 μM dUTP-digoxigenin (Boehringer Mannheim 1558706), 200 μM each of dATP, dCTP, and dGTP, 1×PCR Buffer II (Perkin Elmer), 2.5 mM MgCl2, 0.025 units/μL of AmpliTaq Gold polymerase (Perkin Elmer), and 5 ng of gel-purified HSV DNA per 100 μL Extension conditions were 10 min at 95° C., followed by 30 cycles of 95° C. for 1 min, 55° C. for 30 sec, and 72° C. for 2 min. The amplification was completed with a 10-min incubation at 72° C. Primers were selected to amplify a 728 bp probe spanning a section of the HSV1 UL15 open reading frame (nucleotides 249-977). Single-stranded transcripts were purified with Promega M13 Wizard kits. The final product was mixed 1:1 with a mixture of 6 M GuSCN, 100 mM EDTA and 200 μg/mL herring sperm DNA and stored at 4° C.
(c) Preparation of Capture Plates.
The capture DNA plasmid (HSV UL13 region in pUC) was linearized by cutting with Xba I, denatured for 15 min at 95° C. and diluted immediately into Reacti-Bind DNA Coating Solution (Pierce, 17250, diluted 1:1 with TE buffer, pH 8) at 1 ng/μL. 75 μL/well were added to Corning (#3922 or 9690) white 96-well plates and incubated at room temperature for at least 4 hrs before washing twice with 300 μL/well 0.2×SSC/0.05% Tween-20 (SSC/T buffer). The plates were then incubated overnight at room temperature with 150 μL/well 0.2 N NaOH, 1% IGEPAL and 10 μg/mL herring sperm DNA.
Twenty-seven (27) μL of cell lysate was combined with 45 μL of hybridization solution (final concentration: 3M GuSCN, 50 mM EDTA, 100 μg/ml salmon sperm DNA, 5×Denhardt's solution, 0.25×APE, and 5 ng of the digoxigenin-labeled detection probe). APE is 1.5 M NH4-acetate, 0.15 M NH4H2 phosphate, and 5 mM EDTA adjusted to pH 6.0. Mineral oil (50 μL) was added to prevent evaporation. The hybridization plates were incubated at 95° C. for 10 minutes to denature the DNA, then incubated at 42° C. overnight. The wells were washed 6× with 300 μL/well SSC/T buffer then incubated with 75 μL/well anti-digoxigenin-HRP-conjugated antibody (Boehringer Mannheim 1207733, 1:5000 in TE) for 30 min at room temperature. The wells were washed 6× with 300 μL/well with PBS/0.05% Tween-20 before 75 μL/well SuperSignal LBA substrate (Pierce) was added. The plates were incubated at room temperature for 30 minutes and chemiluminescence was measured in a Wallac Victor reader.
The following results were obtained for HSV-1.
Regarding `Fc1ccc(-c2nn3ccccc3c2-c2ccnc(NCCc3cnc[nH]3)c2)cc1` [Example 1, 4-[2-(4-Fluorophenyl)pyrazolo[1,5-a]pyridin-3-yl]-N-[2-(1H-imidazol-5-yl)ethyl]-2-pyridinamine], the IC50 worked out at 0.7 µM. With `CCCCNc1cc(-c2c(-c3ccc(F)cc3)nn3ccccc23)ccn1` [Example 2, N-Butyl-4-[2-(4-fluorophenyl)pyrazolo[1,5-a]pyridin-3-yl]-2-pyridinamine], the IC50 turned out to be 1.6 µM. Under `OCCCNc1cc(-c2c(-c3ccc(F)cc3)nn3ccccc23)ccn1` [Example 3, 3-(4-[2-(4-Fluorophenyl)pyrazolo[1,5-a]pyridin-3-yl]-2-pyridinylamino)-1-propanol] stands 1.5 µM; under `NCCCNc1cc(-c2c(-c3ccc(F)cc3)nn3ccccc23)ccn1` [Example 4, N^1-4-[2-(4-Fluorophenyl)pyrazolo[1,5-a]pyridin-3-yl]-2-pyridinyl-1,3-propanediamine], 20 µM.

For the compound `CCCCCCNc1cc(-c2c(-c3ccc(F)cc3)nn3ccccc23)ccn1` [Example 5, 4-[2-(4-Fluorophenyl)pyrazolo[1,5-a]pyridin-3-yl]-N-hexyl-2-pyridinamine], the IC50 stood at 5 µM. Under `COc1ccc(CNc2cc(-c3c(-c4ccc(F)cc4)nn4ccccc34)ccn2)cc1` [Example 6, 4-[2-(4-Fluorophenyl)pyrazolo[1,5-a]pyridin-3-yl]-N-(4-methoxybenzyl)-2-pyridinamine] stands 4.2 µM. Regarding `Fc1ccc(-c2nn3ccccc3c2-c2ccnc(NCc3cccnc3)c2)cc1` [Example 7, 4-[2-(4-Fluorophenyl)pyrazolo[1,5-a]pyridin-3-yl]-N-(3-pyridinylmethyl)-2-pyridinamine], the half-inhibitory concentration (IC50) was 6.2 µM. Under `CCCNc1cc(-c2c(-c3ccc(F)cc3)nn3ccccc23)ccn1` [Example 8, 4-[2-(4-Fluorophenyl)pyrazolo[1,5-a]pyridin-3-yl]-N-propyl-2-pyridinamine] stands 2.8 µM; under `OCCNc1cc(-c2c(-c3ccc(F)cc3)nn3ccccc23)ccn1` [Example 9, 2-(4-[2-(4-Fluorophenyl)pyrazolo[1,5-a]pyridin-3-yl]-2-pyridinylamino)-1-ethanol], 2.4 µM; under `CN(C)c1cc(-c2c(-c3ccc(F)cc3)nn3ccccc23)ccn1` [Example 11, 4-[2-(4-Fluorophenyl)pyrazolo[1,5-a]pyridin-3-yl]-N,N-dimethyl-2-pyridinamine], 4.4 µM.

For `Fc1ccc(-c2nn3ccccc3c2-c2cc(F)nc(NCc3ccccc3)c2)cc1` [Example 12, N-Benzyl-6-fluoro-4-[2-(4-fluorophenyl)pyrazolo[1,5-a]pyridin-3-yl]-2-pyridinamine], the IC50 was found to be 3.9 µM. `CC(C)Nc1cc(-c2c(-c3ccc(F)cc3)nn3cc(C(F)(F)F)ccc23)ccn1` [Example 13, 4-[2-(4-Fluorophenyl)-6-trifluoromethylpyrazolo[1,5-a]pyridin-3-yl]-N-isopropyl-2-pyridinamine]: the IC50 came to 1.2 µM.

Turning to `OCCCNc1cc(-c2c(-c3ccc(F)cc3)nn3cc(C(F)(F)F)ccc23)ccn1` [Example 14, 3-(4-[2-(4-Fluorophenyl)-6-trifluoromethylpyrazolo[1,5-a]-pyridin-3-yl]-2-pyridinylamino)-1-propanol], the IC50 was 2 µM. With `NCCCNc1cc(-c2c(-c3ccc(F)cc3)nn3cc(Br)ccc23)ccn1` [Example 15, N-(3-Aminopropyl)-4-[6-bromo-2-(4-fluorophenyl)-pyrazolo[1,5-a]pyridin-3-yl]-2-pyridinamine], the IC50 turned out to be 4 µM. `CCCCNc1nccc(-c2c(-c3ccc(F)cc3)nn3ccccc23)n1` [Example 16, N-Butyl-4-[2-(4-fluorophenyl)pyrazolo[1,5-a]pyridin-3-yl]-2-pyrimidin-amine]: the IC50 is more than 20 µM. Turning to `CC(C)Nc1nccc(-c2c(-c3ccc(F)cc3)nn3ccccc23)n1` [Example 17, 4-[2-(4-Fluorophenyl)pyrazolo[1,5-a]pyridin-3-yl]-N-(2-propyl)-2-pyrimidinamine], the IC50 is 1.5 µM.

As for `Nc1nccc(-c2c(-c3ccc(F)cc3)nn3ccccc23)n1` [Example 18, 4-[2-(4-Fluorophenyl)pyrazolo[1,5-a]pyridin-3-yl]-2-pyrimidinamine], the IC50 came out at 5.4 µM. As to `Nc1nccc(-c2c(-c3ccc(F)cc3)nn3cc(C(F)(F)F)ccc23)n1` [Example 19, 4-[2-(4-Fluorophenyl)-6-trifluoromethylpyrazolo[1,5-a]pyridin-3-yl]-2-pyrimidinamine], the IC50 was more than 40 µM.

Regarding `Fc1ccc(-c2nn3cc(C(F)(F)F)ccc3c2-c2ccnc(NCc3ccccc3)n2)cc1` [Example 20, N-Benzyl-4-[2-(4-fluorophenyl)-6-trifluoromethylpyrazolo[1,5-a]pyridin-3-yl]-2-pyrimidinamine], the IC50 is 16 µM.

`Fc1ccc(-c2nn3cc(C(F)(F)F)ccc3c2-c2ccnc(NC3CC3)n2)cc1` [Example 21, N-Cyclopropyl-4-[2-(4-fluorophenyl)-6-trifluoromethylpyrazolo[1,5-a]pyridin-3-yl]-2-pyrimidinamine]: the IC50 is 0.8 µM. For `Fc1ccc(-c2nn3cc(C(F)(F)F)ccc3c2-c2ccnc(NCC(F)(F)F)n2)cc1` [Example 22, 4-[2-(4-Fluorophenyl)-6-trifluoromethylpyrazolo[1,5-a]pyridin-3-yl]-N-(2,2,2-trifluoroethyl)-2-pyrimidinamine], the IC50 turned out to be 4.3 µM. Regarding `OCCCNc1nccc(-c2c(-c3ccc(F)cc3)nn3cc(C(F)(F)F)ccc23)n1` [Example 23, 3-(4-[2-(4-Fluorophenyl)-6-trifluoromethylpyrazolo[1,5-a]pyridin-3-yl]-2-pyrimidinylamino)-1-propanol], the IC50 turned out to be 1 µM. `N#Cc1ccc2c(-c3ccnc(NC4CC4)n3)c(-c3ccc(F)cc3)nn2c1` [Example 24, N-Cyclopropyl-4-[6-cyano-2-(4-fluorophenyl)pyrazolo[1,5-a]pyridin-3-yl]-2-pyrimidinamine]: the IC50 stood at 0.2 µM. Under `NC(=O)c1ccc2c(-c3ccnc(NCCCO)n3)c(-c3ccc(F)cc3)nn2c1` [Example 25, 2-(4-Fluorophenyl)-3-(4-(2-(3-hydroxypropyl)amino)pyrimidinyl)-6-pyrazolo-[1,5-a]pyridinylcarboxamide] stands 5.5 µM. For `Fc1ccc(-c2nn3ccccc3c2-c2ccnc(NCCc3cnc[nH]3)n2)cc1` [Example 26, 4-[2-(4-Fluorophenyl)pyrazolo[1,5-a]pyridin-3-yl]-N-[2-(1H-imidazol-5-yl)ethyl]-2-pyrimidinamine], the IC50 was found to be 0.15 µM.

Turning to `Fc1ccc(-c2nn3ccccc3c2-c2ccnc(NCc3cccnc3)n2)cc1` [Example 27, 4-[2-(4-Fluorophenyl)pyrazolo[1,5-a]pyridin-3-yl]-N-(3-pyridinylmethyl)-2-pyrimidinamine], the IC50 was determined as 0.5 µM. On to `Fc1ccc(-c2nn3ccccc3c2-c2ccnc(NCc3ccccn3)n2)cc1` [Example 28, 4-[2-(4-Fluorophenyl)pyrazolo[1,5-a]pyridin-3-yl]-N-(2-pyridinylmethyl)-2-pyrimidinamine], for which the IC50 was 0.73 µM.

For `Fc1ccc(-c2nn3ccccc3c2-c2ccnc(NCc3ccncc3)n2)cc1` [Example 29, 4-[2-(4-Fluorophenyl)pyrazolo[1,5-a]pyridin-3-yl]-N-(4-pyridinylmethyl)-2-pyrimidinamine], the IC50 came to 10 µM.

With `CCCCCNc1cc(-c2c(-c3ccc(F)cc3)nn3ccccc23)ccn1` [Example 30, 4-[2-(4-Fluorophenyl)pyrazolo[1,5-a]pyridin-3-yl]-N-pentyl-2-pyridinamine], the IC50 came to 4 µM.
